The record followed here is US20260284048A1, “INHIBITOR OF MEGAKARYOCYTE DIFFERENTIATION AND MATURATION” (OTSUKA PHARMACEUTICAL CO., LTD., priority 2023, published 2026).

Holding throughout (type): cell-based
Assay [1] has as its system Bone marrow-derived CD34-positive cells (CD71-positive and CD235-positive erythroid cells). As to the kind of experiment: Differentiation from CD34-positive cells toward erythroblasts (HemaTox Erythroid Kit, flow cytometry). As to conditions: concentrations of 100 nmol/L or lower, cultured 7 days, two donors, FIG. 4. How it is done:
(§1) It was studied whether Compound 1 inhibits the differentiation from CD34-positive cells toward erythroblasts. Bone marrow-derived CD34-positive cells were cultured for 7 days in erythroid differentiation medium (HemaTox™ Erythroid Kit, STEMCELL™ Technologies) according to the kit's instruction. The number of the CD71-positive and CD235-positive erythroid cells were counted by flow cytometry and the cell viability relative to the untreated cell group was calculated. The test was conducted twice using CD34-positive cells derived from different donors, and the cell viability was determined with the control as 100%.
(In flow cytometry, cells or beads pass a laser one at a time.)

Assay [2] has as its system Bone marrow-derived CD34-positive cells (CD13-positive and CD15-positive myeloid cells). Description: Differentiation from CD34-positive cells toward myeloid cells (HemaTox Myeloid Kit, flow cytometry). Particulars: cultured 7 days, two donors, FIG. 5. How it is done: It was studied whether Compound 1 inhibits the differentiation from CD34-positive cells toward myeloid cells. Bone marrow-derived CD34-positive cells were cultured for 7 days in myeloid differentiation medium (HemaTox™ Myeloid Kit, STEMCELL™ Technologies) according to the kit's instruction. The number of the CD13-positive and CD15-positive myeloid cells was counted by flow cytometry and the cell viability relative to the untreated cell group was calculated. The test was conducted twice using CD34-positive cells derived from different donors, and the cell viability was determined with the control as 100%.

The subject of the next assay is SLFN12 protein. As to the kind of experiment: Increase of SLFN12 protein (Western blot analysis). As to conditions: 1 μmol/L, 16 hours, FIG. 2. As to the method:
In order to examine the effect of Compound 1 on the protein level of SLFN12, Western blot analysis was performed. PFSK-1, HeLa, or U-87 MG cell lines were treated with Compound 1 (1 μmol/L) for 16 hours, and SLFN12 protein in each test sample was detected.
On the technique in general: In western blotting, separated proteins are transferred to a membrane and probed.

Assay [3] has as its system Bone marrow-derived CD34-positive cells (CD41-positive megakaryocytes). As to the kind of experiment: Inhibition of differentiation from CD34-positive cells toward megakaryocytes (HemaTox Megakaryocyte Kit, flow cytometry). Particulars: 240 h, cultured 10 days, three donors. How it is done:
as §1, with “megakaryocytes.” for “erythroblasts.”, “10” for “7”, “the presence and absence of Compound 1 in megakaryocyte” for “erythroid”, “Megakaryocyte” for “Erythroid”, “CD41-positive megakaryocytes was” for “CD71-positive and CD235-positive erythroid cells were”, “three times” for “twice”

The test system of another assay is PDE3A and SLFN12. As to the kind of experiment: Complex formation of PDE3A and SLFN12 (immunoprecipitation using anti-PDE3A antibody). Particulars: PFSK-1 and HeLa cell lines, 1 μmol/L, 16 hours, FIG. 1. As to the method: In order to examine whether Compound 1 forms a complex between PDE3A and SLFN12, a binding confirmation experiment using immunoprecipitation was performed. PFSK-1 and HeLa which are cell lines expressing PDE3A and SLFN12 were treated with Compound 1 (1 μmol/L) for 16 hours, and then immunoprecipitated using anti-PDE3A antibody.

`C[C@@H]1CC(=O)NN=C1c1ccc(OCC(C)(C)O)c(F)c1F` [Compound 1, (R)-6-(2,3-difluoro-4-(2-hydroxy-2-methylpropoxy)phenyl)-5-methyl-4,5-dihydropyridazin-3(2H)-one]: the “effect on differentiation from hematopoietic stem cells toward erythroid cells” value in assay [1] is recorded as “did not affect”. Further, the “effect on differentiation from hematopoietic stem cells toward myeloid cells” value in assay [2] (30 nmol/L) is listed as “inhibited”; in assay [2] (100 nmol/L), “no significant difference”. Also, in assay [2], the “concentration dependence of the effect on differentiation toward myeloid cells” value is recorded as “no concentration-dependent inhibitory effect”. Further, the “SLFN12 protein level compared to untreated” value is listed as “increased SLFN12 protein levels were observed” with SLFN12 protein (PFSK-1 or HeLa (highly expresses PDE3A)) and “no significant, Compound 1-dependent increase in SLFN12 protein level was observed” in the assay on SLFN12 protein (U-87 MG (hardly expresses PDE3A)). For the same molecule, the minimal effective concentration in assay [3] (FIG. 3, read-out: concentration that significantly decreased the number of CD41-positive megakaryocytes) is no less than 0.003 µM. Further, in assay [3] (control as 100%, 95% confidence interval 10.3-23.7 nmol/L, read-out: 50% inhibitory concentration (IC50), number of CD41-positive megakaryocytes), the IC50 was determined as 17 nM. For the same molecule, the “coprecipitation of SLFN12 with PDE3A (complex formation)” value with PDE3A and SLFN12 is listed as “coprecipitation with SLFN12 was confirmed”.
